Laboratory results: patent US20100311107A1, “Ultra-High Throughput Screening of Natural Products” (priority 2004, published 2010)
Read-outs that look alike come from different tables or passages of the source.

How the values were obtained:
Assay type in all cases: cell-based, Escherichia coli
E. coli MG1655 = system: E. coli MG1655; parameters: unit not given here
Procedure: (§1) The screening strain, DR1234, was established after all desired drug-resistant genes listed in Table 5 had been delivered into the parent E. coli strain, MG1655, by methods described above. Its level of drug resistance was analyzed by the standard minimum inhibitory concentration (MIC) assay in MHB liquid medium (Chantot, et al., 1986, “Antibacterial activity of roxithromycin: a laboratory evaluation,” J. Antibiot, 39(5):660-8) and the result was summarized in Table 7.
(§2) The level of drug resistance of CM166 was estimated by MIC assay carried out in MHB liquid medium and the results were summarized in Table 9. CM166 is resistant to antibacterial agents whose resistant genes have been incorporated into the strain, but not to other antibacterial drugs whose resistant genes are not incorporated.
(§3) The level of drug-resistance of screening strain DR1212 was analyzed by standard MIC assay in MHB liquid medium and the result was summarized in Table 11. Similar to screening strains, DR1234 and CM166, DR1212 is also resistant to drugs whose resistant genes have been introduced.
(§4) The level of drug resistance of these screening strains (both intermediates and finals) was evaluated by standard MIC assay in MHB liquid medium and the result of Strain CM242 is summarized in Table 12.
(§5) The level of drug resistance of screening strains CM400 and CM435 was evaluated by standard MIC assay in MHB liquid medium and the results are summarized in Table 13. According to the MIC results, CM435 is hypersensitive to Bleomycin, Daunorucibin, Coumermycin A1 and Erythromycin. Screening strain CM435 and others, which are hypersensitive to certain types of antimicrobial agents, are advantageous in detecting bioactive compounds with low concentration in the screening system.

[1] = system: E. coli screening strain DR1234; parameters: unit not given here; settings: Table 7, MHB medium
Procedure: as §1

[2] = system: E. coli screening strain CM166; parameters: unit not given here; settings: Table 9, MHB medium
Description: as §2

[3] = system: E. coli screening strain DR1212; parameters: unit not given here; settings: Table 11, MHB medium
Procedure: as §3

[4] = system: E. coli screening strain CM242; parameters: unit not given here; settings: second Table 12, MHB medium
Procedure: as §4

[5] = system: E. coli screening strain CM400; parameters: unit not given here; settings: Table 13, MHB medium
Procedure: as §5

[6] = system: E. coli screening strain CM435; parameters: Minimal inhibitory concentrations (MIC90) CM435: unit not given here; settings: for Minimal inhibitory concentrations (MIC90) CM435: Table 13, MHB medium
screening strain DR1212 = experiment: macrodroplet screening assay for DNA-interacting agents; settings: DNA excluded from the bioassay medium
Procedure: (§6) After the period of incubation as described above, macrodroplets can be screened for biological activities by a unique technique termed macrodroplet screening assay. The biological activities of compounds secreted by the encapsulated microorganisms and contained within the macrodroplet beads can be detected by, for example, cell growth inhibition. In general, screening strains should first be cultured to a certain cell density (proper OD reads as described in section 5.3.3.) in liquid medium and then plated in semi-solid medium matrix (0.8%), which overlays the macrodroplet beads (see FIG. 1, item 140. Item 145 of FIG. 1 represents the top layer of semi-solid medium matrix containing a selected screening strain). After being incubated overnight, the screening strain can grow throughout the matrix, except in areas where macrodroplet beads release metabolites, which prevent the growth of the screening strain. The inhibition of cell growth may result in zones of inhibition around these beads (see item 155, FIG. 1), which usually can be detected visually.
Screening for DNA-interacting agents was carried out using the standard macrodroplet screening method previously described, with the exception that DNA was excluded from the bioassay medium. Following overnight incubation at 35° C., macrodroplet beads from zones of inhibition are recovered and processed via the normal route as discussed in section 5.2.2.4.
Alternatively, a second round screening was performed to increase specificity of the screening. Microorganisms obtained as the outcome of the screening described above were subject to a second round of screening using screening strains having a lacZ reporter gene controlled by promoters responsive to DNA damage, such as CM191 and CM242 (see section 5.3.1.d. The details of screening procedure are discussed in both section 5.2.3. Microorganisms from macrodroplets producing zones of activity were purified using methods previously described and fermented in larger volumes. Their species specificities were determined by sequencing their 16S rRNA genes and the active compounds were purified and further characterized. Several active compounds were selected by DR1212, such as chrysomycin, streptonigrin, daunomycin and chromomycin, which are all known DNA damaging agents.

[7] = system: PrecN′-'lacZ fusion gene in CM242; experiment: β-galactosidase activity in the presence of DNA damaging drugs
Procedure: (§7) The responses to DNA damaging agents of the screening strains described above were measured by analyzing the β-galactosidase activity in the presence of DNA damaging drugs. This method is described in detail in “A Short Course in Bacterial Genetics” 1992, ed. Miller, Cold Spring Harbor Press, pp. 72-74. The PsulA′-'lacZ fusion gene in CM191 was induced 15 fold compared to a non-induced control two hours after the addition of mitomycin C (0.5 μg/ml). In the case of CM242 which contains the PrecN′-'lacZ fusion gene, a more than 40-fold induction had been observed. Such induction was also drug-specific. In an experiment when phosphomycin (at 10 μg/ml) was used, there was no induction of the β-galactosidase activity.

[8] = system: PsulA′-'lacZ fusion gene in CM191; experiment: as above; settings: CM191, two hours after addition, 0.5 μg/ml
Procedure: as §7

[9] = system: lacZ reporter gene of the screening strains (CM191, CM242); experiment: S-Gal staining assay on solid medium; settings: screening strains on solid medium, drug-impregnated disks, PETG to suppress background
Description: The screening strains' responses to DNA damaging agents were further confirmed by S-Gal staining assay. When mitomycin C and streptonigrin (both were well-known DNA damaging drugs) and S-Gal, the indicator, were applied to the screening strains growing on solid medium, blue-colored rings were visible around colonies in drug-impregnated disks. […] Actinomycin D was an exception. CM242 was not sensitive to this drug, although it disrupts DNA structure. PETG (2-phenyethyl B-D-thiogalactoside, Sigma, St Louis Mo.), was used in this experiment to suppress unspecific background activity.

screening strain CM166 = experiment: macrodroplet screening assay, zones of inhibition; settings: soil actinomycetes in macrodroplets, DNA and biotin in medium
Procedure: as §6
Next, microorganisms from the soil samples collected as described above were encapsulated to form macrodroplets populated by a single microorganism in each bead, according to the pre-determined cfu count of the particular soil extract. In this process, an aliquot of the soil bacteria suspension was diluted in 10% glycerol to generate an inoculum of the required density. This adjusted suspension was then mixed with nutrient medium, counterselective agents (see above) and 1.4% sodium alginate and the resultant mixture processed through an Inotech Encapsulator® Research device, to produce gel-beads (called macrodroplets) by the formation of droplets of liquid from a fluid stream. The droplets solidified into gel-beads as they came into contact with a calcium chloride bath, which also contained nutrient medium and counterselective agents. After a defined hardening time the macrodroplets were washed to remove excess calcium chloride and to stop the hardening process. Smidsrod and Skjak-Braek, 1990, “Alginate as immobilization matrix for cells,” Trends Biotechnol. 8(3):71-8. Cured macrodroplets containing microorganisms were then spread in dishes from which excess fluid was removed. The macrodroplets subsequently allowed growth of the target organisms and production of secondary metabolites such as anti-microbial agents. Macrodroplets were spread evenly over the plate using a sterile spreader (5,000 particles per plate) and incubated at 28-30° C. for 7 days to allow the growth of the microorganism within, and the production of secondary metabolites.
CM166 (see section 5.3.1.b for details) was used as the test strain in this example. Two to three single colonies of CM166 were inoculated into a shake flask containing 10 ml of MHB medium with 40 μg/ml Tmp and 200 μg/ml Amp. After the cells were cultured at 35° C. for 2-3 hours, an OD reading was performed. If the OD reading was above 0.1 (equivalent to 2×10^8 cfu), the screening strain was ready for dilution. Otherwise, the strain needed to be incubated for longer time until the OD read reached >0.1. Medium for the macrodroplet assay (in 1 L Duran, add 10.5 g MHB power, 4 g agar (0.8%), and 1 g DNA) was autoclaved and cooled to ˜45° C., and ampicillin (25 mg/ml), tetracycline (10 mg/ml), daptomycin (20 mg/ml) and biotin (0.1 μg/ml) were added, together with 2.5 ml screening strain. […]

`COc1cccc2c1C(=O)c1c(O)c3c(c(O)c1C2=O)C[C@@](O)(C(C)=O)C[C@@H]3O[C@H]1C[C@H](N)[C@H](O)[C@H](C)O1` [Daunorubicin] was tested, and the “Minimal inhibitory concentrations (MIC90) MG1655” value (E. coli MG1655; Table 7, MHB medium) was 200, the “Minimal inhibitory concentrations (MIC90) MG1655” value (E. coli MG1655; Table 9, MHB medium) was 200 and the “Minimal inhibitory concentrations (MIC90) MG1655” value (E. coli MG1655; Table 11, MHB medium) was 200. For the same compound, the “Minimal inhibitory concentrations (MIC90) MG1655” value (E. coli MG1655; Table 13, MHB medium) was >256, the “Minimal inhibitory concentrations (MIC90) MG1655” value (E. coli MG1655; second Table 12, MHB medium) was 200 and the “Minimal inhibitory concentrations (MIC90) DR1234” value [1] was >400. The “Minimal inhibitory concentrations (MIC90) CM166” value [2] was >400, the “Minimal inhibitory concentrations (MIC90) DR1212” value [3] was 12.5 and the “Minimal inhibitory concentrations (MIC90) CM242” value [4] was 100. The “Minimal inhibitory concentrations (MIC90) CM400” value [5] was >256, the “sensitivity of CM435 according to the MIC results” value ([6]; MHB liquid medium) was “hypersensitive” and the “Minimal inhibitory concentrations (MIC90) CM435” value [6] was 8. For the same compound, the “active compound selected by DR1212” value (screening strain DR1212) was “active”.

`CO[C@@]12[C@H](COC(N)=O)C3=C(C(=O)C(C)=C(N)C3=O)N1C[C@@H]1N[C@@H]12` [Mitomycin C] was tested, and the “Minimal inhibitory concentrations (MIC90) MG1655” value (E. coli MG1655) was 0.8, the “Minimal inhibitory concentrations (MIC90) DR1234” value [1] was 3.2 and the “Minimal inhibitory concentrations (MIC90) CM166” value [2] was 3.2. For the same compound, the “Minimal inhibitory concentrations (MIC90) DR1212” value [3] was <0.4, the “Minimal inhibitory concentrations (MIC90) CM242” value [4] was 3.2 and the “induction of PrecN′-'lacZ fusion gene” value ([7]; CM242, 0.5 μg/ml) was “more than 40 fold”. For the same compound, the “induction of PsulA′-'lacZ fusion gene compared to a non-induced control” value [8] was 15 fold and the “lacZ reporter gene expression (S-Gal, blue-colored rings)” value [9] was “induced”.

For `C[C@@H]1O[C@@H]1P(=O)(O)O` [Phosphomycin], the “Minimal inhibitory concentrations (MIC90) MG1655” value (E. coli MG1655; Table 13, MHB medium) was 32, the “Minimal inhibitory concentrations (MIC90) CM400” value [5] was 8 and the “Minimal inhibitory concentrations (MIC90) CM435” value [6] was 64. The “induction of the β-galactosidase activity” value ([7]; at 10 μg/ml, strain not specified) was “no induction”.

`COC1=C(N)C(=O)c2nc(-c3nc(C(=O)O)c(C)c(-c4ccc(OC)c(OC)c4O)c3N)ccc2C1=O` [Streptonigrin] was tested, and the “Minimal inhibitory concentrations (MIC90) MG1655” value (E. coli MG1655; Table 7, MHB medium) was 3.2, the “Minimal inhibitory concentrations (MIC90) MG1655” value (E. coli MG1655; Table 9, MHB medium) was 3.2 and the “Minimal inhibitory concentrations (MIC90) MG1655” value (E. coli MG1655; Table 11, MHB medium) was 3.2. The “Minimal inhibitory concentrations (MIC90) MG1655” value (E. coli MG1655; Table 13, MHB medium) was 8, the “Minimal inhibitory concentrations (MIC90) MG1655” value (E. coli MG1655; second Table 12, MHB medium) was 3.2 and the “Minimal inhibitory concentrations (MIC90) DR1234” value [1] was 3.2. For the same compound, the “Minimal inhibitory concentrations (MIC90) CM166” value [2] was 1.6, the “Minimal inhibitory concentrations (MIC90) DR1212” value [3] was “≦0.2” and the “Minimal inhibitory concentrations (MIC90) CM242” value [4] was 3.2. The “Minimal inhibitory concentrations (MIC90) CM400” value [5] was 8, the “Minimal inhibitory concentrations (MIC90) CM435” value [6] was 0.5 and the “lacZ reporter gene expression (S-Gal, blue-colored rings)” value [9] was “induced”. The “active compound selected by DR1212” value (screening strain DR1212) was “active”.

In the case of `CCC(=O)Nc1c2sscc-2n(C)c1=O` [aureothricin], the “bioactive compound of actinomycete strains selected with CM166” value (screening strain CM166) was “bioactive”.

For `COC1C(O)CC(OC2CC(Oc3cc4cc5c(c(O)c4c(O)c3C)C(=O)[C@@H](OC3CC(OC4CC(OC6CC(C)(O)C(OC(C)=O)C(C)O6)C(O)C(C)O4)C(O)C(C)O3)[C@H]([C@H](OC)C(=O)[C@@H](O)[C@@H](C)O)C5)OC(C)C2OC(C)=O)OC1C` (stereo partly drawn) [chromomycin], the “active compound selected by DR1212” value (screening strain DR1212) was “active”.

`O=C(O)/C=C/CC[C@@H]1SC[C@@H]2NC(=O)N[C@@H]21` [lydimycin] was tested, and the “bioactive compound of actinomycete strains selected with CM166” value (screening strain CM166) was “bioactive”.

`CC(=O)Nc1c2sscc-2n(C)c1=O` [thiolutin] was tested, and the “bioactive compound of actinomycete strains selected with CM166” value (screening strain CM166) was “bioactive”.

albomycin was tested, and the “bioactive compound of actinomycete strains selected with CM166” value (screening strain CM166) was “bioactive”.

For chrysomycin, the “active compound selected by DR1212” value (screening strain DR1212) was “active”.

streptavidin was tested, and the “bioactive compound of actinomycete strains selected with CM166” value (screening strain CM166) was “bioactive”.
